Laboratory results published in PMC13195669, “GPR3 Ligands Discovered through Combined Virtual and Conformational Biosensor-Based Screening” (Journal of the American Chemical Society, 2026).

Tests used:
GPR3 [1] = target: T1, GPR3 (Homo sapiens, UniProt P46089, INS231ASEIGTGFPFDPHYVEVLGERMHYVDVGPRDGTPVLFLHGNPTSSYVWRNIIPHVAPTHRCIAPDLIGMGKSDKPDLGYFFDDHVRFMDAFIEALGLEEVVLVIHDWGSALGFHWAKRNPERVKGIAFMEFIRPIPTWDEWPEFARETFQAFRTTDVGRKLIIDQNVFIEGTLPMGVVRPLTEVEMDHYREPFLNPVDREPLWRFPNELPIAGEPANIVALVEEYMDWLHQSPVPKLLFWGTPGVLIPPAEAARLAKSLPNCKAVDIGPGLNLLQEDNPDLIGSEIARWLSTLEISGGS); test: BRET-based conformational GPR3 biosensor (GPR3-HaloTag/Nluc) in HEK293A cells; type: cell-based; details: for BRET response of GPR3 biosensor (direction, words): HEK293A
T1 construct: ligated to the full-length C-terminus; expressed in transfected cells; some experiments transient
Text: To develop a conformational GPR3 biosensor that can be used in a microtiter well plate format, we employed the intramolecular BRET design previously validated for several GPCRs. − The BRET donor NanoLuc was fused to the receptor’s full-length C-terminus and the self-labeling protein tag, HaloTag, was inserted into GPR3′s third intracellular loop between amino acids Arg231 and His232 (Figure a; sequence in Figure S1). […]
Plasmids and molecular cloning […]
Plasmids encoding the conformational biosensors α2AAR- and β2AR-HaloTag/Nluc9 and the Gs heterotrimer dissociation sensor10 were previously described. The expression plasmid encoding N-terminally HA-tagged GPR3 (cat. no.
#GPR003TN00) on a pcDNA3.1+ vector was obtained from the cDNA resource center (cdna.org). The Nluc and HaloTag in-serts were amplified with overhanging restriction sites from β2AAR- HaloTag/Nluc and ligated to the full-length C-terminus or inserted into icl3 of GPR3, respectively, to obtain the conformational biosensor GPR3-HaloTag/Nluc. Point mutants of GPR3-HaloTag/Nluc were generated using the GeneArt Site-directed Mutagenesis System (Thermo Fisher Scientific). All con-structs were verified by sequencing (Eurofins genomics). […]
serum albumin (BSA) were obtained from Sigma Aldrich (Merck KGaA). Dulbecco's Modified Eagle's Medium (DMEM), Dul- […]
Diphenyleneiodonium chloride (DPI) and AF64394 were purchased from Tocris (Bio -Techne). The TMB (3, 3', 5, 5' tetramethyl benzidine) substrate reagent set was […]
were obtained in a single kit from Promega (cat. no. N1662). D-luciferin-sodium and the S1PR1 agonist III were from Med-ChemExpress. The Rluc substrate coelenterazine 400a was from NanoLight Technology (cat. no. 340 -10). White -wall, white - bottomed 96 -well, black -wall, black bottomed and transparent 96 -well microtiter plates were from Brand.
HEK293A cells were used for transient transfection and grown in Dulbecco’s modified Eagle’s medium (DMEM) supplemented with 2 mM glutamine, 10 % fetal calf serum, streptomycin (0.1 mg/mL), and penicillin (100 U/mL) at 37 °C with 5 % CO2. For the generation of stable GPR3 -HaloTag/Nluc cells, HEK293A cells grown in T75 flasks were transfected at a confluence of 40 – […]
Absence of mycoplasma contamination was routinely
(§1) Transient transfection and plating
Resuspended cells (300,000 cells/mL) were transfected in suspension with a total of 1 μg DNA/mL suspension using PEI (1 mg/ml stock solution; 3 μL PEI solution per μg DNA). […]
Cells mixed with the transfection reagents were seeded onto poly-D-lysine–precoated, 96-well plates and grown for 48 h at 37 °C with 5 % CO2. Stable α2AAR-, β2AR- or GPR3-HaloTag/Nluc expressing cells were seeded 24 h before the experi-ment at a density of 800,000 cells/mL into white 96-well plates. To monitor changes in BRET in with conformational GPCR […]
experiment. White plates were used for BRET and luminescence measurements, black plates for FRET experiments and trans-parent plates for absorbance-based quantification of receptor surface expression levels.

β2AR = test: β2AR-HaloTag/Nluc conformational biosensor (negative control) in HEK293A cells; type: cell-based, human; details: β2AR-HaloTag/Nluc as negative control; HEK293A stable
Method: Initially, all 93 molecules were tested for activity at the GPR3 biosensor at a concentration of 1 μM (Figure a). […] Of the five compounds that emerged from the virtual screen, three–hereafter referred to as virtual hit 1–3, VH1/2/3–were selected for in-house chemical synthesis (compounds 52, 93, and 115; cf. Scheme , Figure S6), providing compounds of ≥99% purity for hit validation (NMR spectra: Figures S7–S142; HPLC purity: Figures S143–S218). For VH1, the racemic mix, rac-VH1/52, was synthesized and used for testing. Compounds 52, VH2/93, and VH3/115 (Figure S6) were then validated with the GPR3 biosensor including β2AR-HaloTag/Nluc as a negative control.
BRET-based GPCR conformational sensor experiments
Cells expressing the conformational GPCR biosensors were grown for 24 h (stable cells) or 48 h (transiently transfected cells) in white 96-well plates and washed with 100 µl of HBSS. After washing, cells were incubated for 2 minutes with a 1/1000 solution of the furimazine stock solution (Promega; cat. no. N1662). Three baseline BRET reads were recorded and averaged prior to the addition of serial dilutions of ligands or veh icle control and subsequent BRET reads. All experiments were con-ducted at 37 °C. BRE T donor emission was quantified with a 470/80 nm monochromator. BRET acceptor emission was quan-tified using a 660/100 nm monochromator. Experiments were carried out using a CLARIOstar plate reader. […]
FRET and BRET ratios were defined as acceptor emission/donor emission. […] To quantify ligand-induced changes ΔFRET and ΔBRET were calculated for each well as a percent over basal ([(Ratiostim − Ratiobasal)/Ratiobasal] × 100). […]
Data from FRET/BRET experiments were fitted using a three-parameter fit. Z-factors expressing the high-throughput suita-bility were calculated with the following equation: […]
Commercially available chemicals and solvents were purchased from standard commercial suppliers (Merck (Darmstadt, Ger-many), Sigma-Aldrich (Munich, Germany), Acros Organics (Geel, Belgium), Alfa Aesar (Karlsruhe, Germany), abcr (Karlsruhe, Germany), BLD Pharmatech (Reinbek, Germany) or TCI Europe (Zwijndrecht, Belgium) and were used as received. Deuter-ated solvents for nuclear magnetic resonance (1H NMR and 13C NMR) spectra were purchased from Deutero GmbH (Kastel-laun, Germany). All reactions carried out with dry solvents were accomplished in dry flasks under nitrogen or argon atmos-phere. For the preparation of buffers, HPLC eluents, and stock solutions millipore water was used. […] The reactions were monitored by thin layer chromatography (TLC) on Merck silica gel 60 F254 aluminium sheets and spots were visualized under UV light at 254 nm, by potassium permanganate or ninhydrin staining. […]

GPR3 [2] = target: T2, GPR3 (Homo sapiens, UniProt P46089); test: FRET/BRET cAMP biosensor in HEK293A cells cotransfected with GPR3; type: cell-based; details: cAMP biosensor; pcDNA vs GPR3 transfected HEK293A
T2 construct: host or cells: HEK293A, transient
Text: With the first GPR3 ligands identified by using a conformational readout in our hands, we next wanted to understand whether these compounds could have been detected in a cAMP-based assay, which has been used extensively in the past to screen for GPR3 ligands. We therefore tested rac-VH1/52, VH2/93 and VH3/115 in cells expressing a cAMP biosensor.
3 Effect of rac-VH1/52, VH2/93 and VH3/115 on GPR3-dependent cAMP production. (a–c) Vehicle-corrected BRET changes induced by rac-VH1/52 (a), VH2/93 (b) or VH3/115 (c) in HEK293A cells transiently transfected with a cAMP BRET sensor along with pcDNA or GPR3. […] Statistical significance was tested using Two-Way ANOVA followed by Sidak multiple comparison (*: […]; **: p < 0.01). […]
Plasmids and molecular cloning
The H187-EPAC-FRET sensor7 was kindly provided by K. Jalink (The Netherlands Cancer Institute, Amsterdam, The Nether-lands). The BRET-based cAMP sensor CAMYEL8 was kindly provided by Laura Humphrys (University of Regensburg, Regens-burg, Germany). Plasmids encoding the conformational biosensors α2AAR- and β2AR-HaloTag/Nluc9 and the Gs heterotrimer dissociation sensor10 were previously described. The expression plasmid encoding N-terminally HA-tagged GPR3 (cat. no.
#GPR003TN00) on a pcDNA3.1+ vector was obtained from the cDNA resource center (cdna.org). The Nluc and HaloTag in-serts were amplified with overhanging restriction sites from β2AAR- HaloTag/Nluc and ligated to the full-length C-terminus or inserted into icl3 of GPR3, respectively, to obtain the conformational biosensor GPR3-HaloTag/Nluc. Point mutants of GPR3-HaloTag/Nluc were generated using the GeneArt Site-directed Mutagenesis System (Thermo Fisher Scientific). All con-structs were verified by sequencing (Eurofins genomics).
Poly-D-lysine, polyethylenimin hydrochloride (linear; average Mn 20 000; PEI) , […], LPA , forskolin, NECA and bovine serum albumin (BSA) were obtained from Sigma Aldrich (Merck KGaA). Dulbecco's Modified Eagle's Medium (DMEM), Dul-becco's Phosphate -Buffered Saline (DPBS) and G -418 (Geneticin) were from Gibco. Diphenyleneiodonium chloride (DPI) and AF64394 were purchased from Tocris (Bio -Techne). The TMB (3, 3', 5, 5' tetramethyl benzidine) substrate reagent set was from BioLegend. The Nluc substrate furimazine and the red fluorescen t HaloTag dye, HaloTag® NanoBRET® 618 Ligand, were obtained in a single kit from Promega (cat. no. N1662). D-luciferin-sodium and the S1PR1 agonist III were from Med-ChemExpress. The Rluc substrate coelenterazine 400a was from NanoLight Technology (cat. no. 340 -10). White -wall, white - bottomed 96 -well, black -wall, black bottomed and transparent 96 -well microtiter plates were from Brand.
HEK293A cells were used for transient transfection and grown in Dulbecco’s modified Eagle’s medium (DMEM) supplemented with 2 mM glutamine, 10 % fetal calf serum, streptomycin (0.1 mg/mL), and penicillin (100 U/mL) at 37 °C with 5 % CO2. […]
as §1
Resuspended cells (300,000 cells/mL) were transfected in suspension with a total of 1 μg DNA/mL suspension using PEI (1 mg/ml stock solution; 3 μL PEI solution per μg DNA). For cAMP experiments with FRET- or BRET-based sensors, resuspended cells were transfected with 500 ng pcDNA, wildtype GPR3 or GPR3-HaloTag/Nluc constructs along with 500 ng of the FRET-or BRET-based cAMP sensor per mL cell suspension. For cAMP experiments with GloSensor™ 22F, resuspended cells were transfected with 250 ng pcDNA or GPCR along with 500 ng of a 1:1 mix of pcDNA with the GloSensor™ 22F per mL cell sus-pension. Cells mixed with the transfection reagents were seeded onto poly-D-lysine–precoated, 96-well plates and grown for 48 h at 37 °C with 5 % CO2. Stable α2AAR-, β2AR- or GPR3-HaloTag/Nluc expressing cells were seeded 24 h before the experi-ment at a density of 800,000 cells/mL into white 96-well plates. To monitor changes in BRET in with conformational GPCR […]

T1 sequence (P46089 with tags, fused parts or gaps with the stated changes): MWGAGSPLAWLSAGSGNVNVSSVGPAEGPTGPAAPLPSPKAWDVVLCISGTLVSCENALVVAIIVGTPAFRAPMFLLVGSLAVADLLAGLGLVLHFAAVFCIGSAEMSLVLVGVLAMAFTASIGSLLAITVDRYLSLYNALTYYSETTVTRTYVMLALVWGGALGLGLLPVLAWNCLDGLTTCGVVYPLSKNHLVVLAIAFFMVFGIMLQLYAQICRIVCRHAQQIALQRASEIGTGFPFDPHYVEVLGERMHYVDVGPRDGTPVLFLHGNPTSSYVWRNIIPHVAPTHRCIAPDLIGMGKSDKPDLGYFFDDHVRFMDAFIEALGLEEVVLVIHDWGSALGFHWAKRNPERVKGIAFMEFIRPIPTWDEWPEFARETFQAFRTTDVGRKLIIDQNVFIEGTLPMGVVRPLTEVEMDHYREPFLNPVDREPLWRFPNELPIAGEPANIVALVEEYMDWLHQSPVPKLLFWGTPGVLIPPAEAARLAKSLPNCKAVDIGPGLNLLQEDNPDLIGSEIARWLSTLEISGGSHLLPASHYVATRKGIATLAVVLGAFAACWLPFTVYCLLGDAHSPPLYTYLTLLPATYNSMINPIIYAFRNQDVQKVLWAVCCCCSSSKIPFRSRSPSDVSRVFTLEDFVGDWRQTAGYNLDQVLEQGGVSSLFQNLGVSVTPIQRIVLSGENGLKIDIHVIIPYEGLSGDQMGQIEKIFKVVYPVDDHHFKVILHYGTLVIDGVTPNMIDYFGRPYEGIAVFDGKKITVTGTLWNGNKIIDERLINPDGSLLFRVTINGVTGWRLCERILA
T2 sequence (P46089 whole entry): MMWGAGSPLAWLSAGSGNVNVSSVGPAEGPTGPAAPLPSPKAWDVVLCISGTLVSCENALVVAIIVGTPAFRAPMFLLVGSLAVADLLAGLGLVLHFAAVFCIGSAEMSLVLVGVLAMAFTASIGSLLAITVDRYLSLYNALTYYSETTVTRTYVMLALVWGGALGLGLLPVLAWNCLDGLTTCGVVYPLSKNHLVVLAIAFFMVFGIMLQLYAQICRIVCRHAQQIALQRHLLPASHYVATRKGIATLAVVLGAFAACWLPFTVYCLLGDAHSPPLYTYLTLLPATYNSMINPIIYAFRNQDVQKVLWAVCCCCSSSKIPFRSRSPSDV

| SMILES | BRET response of GPR3 biosensor (direction, words) (GPR3 [1]) | specificity of conformational response for GPR3 vs β2AR-HaloTag/Nluc (β2AR) | GPR3-dependent change in cAMP (GPR3 [2]) | EC50 (GPR3 [1]; transiently expressing HEK293A cells, read-out: EC50 of BRET increase at conformational GPR3 biosensor) [µM] |
| --- | --- | --- | --- | --- |
| CCCCCCCC/C=C\CCCCCCCC(N)=O [oleamide, reference compound] | concentration-dependent decreases in BRET |  |  |  |
| O=C(C1COc2ccccc2O1)N1CCC(Cn2cncn2)(C2CCCCC2)CC1 (stereo not shown) [compound 93] |  | concentration-dependent and GPR3-specific conformational changes | to a much lesser extent |  |
| CCCCCCCC/C=C\CCCCCCCC(=O)NCCO [OEA, reference compound] | concentration-dependent decreases in BRET |  |  |  |
| CC(C)Oc1cc(Cl)ccc1CNc1cc(-c2ccccc2)nc2ncnn12 [AF64394, reference compound] | time- and ligand-concentration-dependent increase in BRET |  | concentration-dependent reduction of cAMP | 0.161 |
